Assay results: patent US11046716B2, “Beta-lactamase inhibitors” (priority 2015, dated 2021)

Key:
[1] = biological target: T1, SHV-5 (Klebsiella pneumoniae, UniProt P0A3M1); experiment: β-lactamase enzyme inhibition assay, SHV-5 (cefotaxime substrate); format: biochemical
T1 construct: made in house; host or cells: E. coli BL21(DE3)
Procedure: (§1) For SHV-5, Kpc-2, p99AmpC and OXA-1 β-lactamases, E. coli BL21(DE3) bacterial cells carrying expression plasmids (expressed as native untagged proteins) for the individual β-lactamases were grown in 1 L of Superbroth (Teknova Inc. Hollister, Calif.) supplemented with 100 μg/ml kanamycin selection and 1×5052 (0.5% glycerol, 0.05% glucose and 0.2% α-lactose) at 35° C. for 18-20 hours. Cells were harvested by centrifugation (4,000×g, 4° C., 20 min), resuspended in 50 ml of 10 mM HEPES pH 7.5 ( 1/20 of the initial volume). The cells were lysed by sonication (5 pulses of 45 seconds) at 45 W on ice. The lysates were clarified by centrifugation at 10,000×g for 40 minutes at 4° C. Samples were diluted 5-fold in 50 mM sodium acetate pH 5.0, stored overnight at 4° C., after which they were centrifuged at 10,000×g for 30 minutes to clarify, and filtered through 0.45 μm filters. The samples were loaded onto a 5 ml Capto S sepharose cation exchange column (GE Healthcare) pre-equilibrated with 50 mM sodium acetate pH 5.0. The column was washed with 5 column volumes of 50 mM sodium acetate pH 5.0 to wash out unbound protein and a linear gradient of NaCl (0 to 500 mM) was used to elute the protein (over 16 CV) from the column. Fractions were assayed for β-lactamase activity using Centa (Calbiochem, Gibbstown, N.J.) or Nitrocefin (EMD Millipore chemicals, Darmstadt, Germany) as a reporter β-lactamase substrate for activity in the isolated fractions. Active fractions were pooled, concentrated and further purified by gel filtration chromatography on a Superdex 75 prep grade gel filtration column (GE Healthcare, Piscataway, N.J.) pre-equilibrated in 50 mM Hepes pH 7.5, 150 mM NaCl. Active fractions were pooled concentrated, quantitated by BCA protein determination (Thermo Scientific, Rockford, Ill.), dialyzed into PBS and frozen at −80° C. in 20% glycerol until use.
(§2) An equal volume of diluted enzyme stock was added, and the plates were incubated at 37° C. for 15 min. Nitrocefin was used as substrate for p99 AmpC, VIM-2 and OXA-1 and dispensed into each well at a final concentration of 100 μM. Absorbance at 486 nm was immediately monitored for 10 min using a Biotek Powerwave XS2 microplate spectrophotometer using the GEN5 software package (Biotek Instruments, Winooski Vt.). In an analogous fashion, imipenem was used as substrate for Kpc-2 and Cefotaxime was used for SHV-5, while changes in absorbance upon hydrolysis of the β-lactam ring were monitored at 300 nm and 260 nm respectively in UV-transparent 96-well microtiter assay plates. Maximum rates of hydrolysis were compared to those in control wells (without inhibitors), and percentages of enzyme inhibition were calculated for each concentration of inhibitor. The concentration of inhibitor needed to reduce the initial rate of hydrolysis of substrate by 50% (IC50) was calculated as the residual activity of β-lactamase at 486 nm using GraFit version 7 kinetics software package (Erithacus Software, Surrey, UK).
(§3) Using the methodology described above, examples of the current invention were evaluated for their ability to inhibit β-lactamase enzymes from all four Ambler classifications (A through D). […] NT=Not tested.

[2] = biological target: T2, KPC-2 (Klebsiella pneumoniae, UniProt Q9F663); experiment: β-lactamase enzyme inhibition assay, KPC-2 (imipenem substrate); format: biochemical; conditions: Class A; imipenem substrate, 300 nm; read-out: KPC-2
T2 construct: made in house; host or cells: E. coli BL21(DE3)
Procedure: as §1, §2, §3

[3] = biological target: T3, VIM-2 (Escherichia coli, UniProt Q5U7L7); experiment: β-lactamase enzyme inhibition assay, VIM-2 (nitrocefin substrate); format: biochemical; conditions: Class B; nitrocefin substrate, 486 nm; read-out: VIM-2
T3 construct: made in house; host or cells: E. coli BL21(DE3)
Procedure: For Vim-2 metallo β-lactamase, the procedure was identical with the following exceptions, first the protein was not pH adjusted to pH 5 with 50 mM sodium acetate, second, the chromatography step was changed to a 5 ml Q sepharose anion exchange column pre-equilibrated with 50 mM Hepes pH 7.5, and elution of the protein was achieved by a linear gradient of NaCl (0-600 mM). Finally, the VIM-2 purification required a second run (3rd step) on the Q sepharose anion exchange column to achieve acceptable purity (>90%).
as §2, §3

[4] = biological target: T4, AmpC (Enterobacter cloacae, UniProt P05364); experiment: β-lactamase enzyme inhibition assay, p99 AmpC (nitrocefin substrate); format: biochemical
T4 construct: made in house; host or cells: E. coli BL21(DE3)
Procedure: as §1, §2, §3

[5] = biological target: OXA-48 (UniProt Q6XEC0); experiment: β-lactamase enzyme inhibition assay, Class D oxacillinase; format: biochemical; conditions: read-out: OXA-48
[6] = test system: E. coli expressing the Class A Extended Spectrum Beta-Lactamase (ESBL) CTX-M-15; experiment: Broth microdilution MIC assay with ceftazidime, E. coli CTX-M-15; format: cell-based; conditions: Fixed CAZ (ceftazidime) 4 μg/mL; E. coli ESBL4 CTX-M-15
Excerpt: (§4) To determine the ability of test compounds to potentiate the inhibition of the growth of bacterial strains that produce beta-lactamase enzymes in the presence of a β-lactam antibiotic, classic cell based broth microdilution MIC assays were employed. Six bacteria strains producing beta-lactamase enzymes were used: E. coli expressing the Class A Extended Spectrum Beta-Lactamase (ESBL) CTX-M-15, E. cloacae expressing the Class C P99, K. pneumoniae expressing the Class A carbapenemase KPC-2, P. aeruginosa expressing the Class B carbapenemase VIM-2, K. pneumoniae expressing the class A carbapenemase KPC-2 and the class B carbapenemase VIM-4, and K. pneumoniae producing the Class D carbapenemase OXA-48. The assay was conducted in Cation Adjusted Mueller Hinton Broth (CAMHB, BD #212322, BD Diagnostic Systems, Sparks, Md.). Bacteria strains were grown for 3-5 hours in CAMBH broth. Test compounds (Examples 1-94) were added to a microtiter plate in 2-fold serial dilutions in CAMHB in a final concentration range of 16 μg/mL to 0.125 μg/ml. An overlay of CAMHB containing a Beta-lactam was added to the compounds at a final static concentration of 4 μg/ml. […] In addition to the titration of test compounds the MICs of a panel of control beta-lactams is also tested to ensure the strains are behaving consistently from test to test. Once the test compound and antibiotics are added the plates can be inoculated according to CLSI broth microdilution method. After inoculation the plates are incubated for 16-20 hours at 37° C. then the Minimal Inhibitory Concentration (MIC) of the test compound is determined visually.
(§5) Using the methodology described above, examples of the current invention were evaluated for their ability to inhibit the growth of β-lactamase-producing bacteria in the presence of a β-lactam antibiotic.

[7] = test system: K. pneumoniae expressing the Class A carbapenemase KPC-2; experiment: Broth microdilution MIC assay with meropenem, K. pneumoniae KPC-2; format: cell-based; conditions: Fixed Mero (meropenem) 4 μg/mL; K. p. 156319 KPC-3
Excerpt: as §4, §5

[8] = test system: P. aeruginosa expressing the Class B carbapenemase VIM-2; experiment: Broth microdilution MIC assay with meropenem, P. aeruginosa VIM-2; format: cell-based; conditions: Fixed Mero (meropenem) 4 μg/mL; P. aerug. 2775 VIM-2
Excerpt: as §4, §5

[9] = test system: K. pneumoniae expressing the class A carbapenemase KPC-2 and the class B carbapenemase VIM-4; experiment: Broth microdilution MIC assay with meropenem, K. pneumoniae KPC-2 and VIM-4; format: cell-based; conditions: Fixed Mero (meropenem) 4 μg/mL; K. p. A-1797 KPC-2 VIM-4
Excerpt: as §4, §5

[10] = test system: K. pneumoniae producing the Class D carbapenemase OXA-48; experiment: Broth microdilution MIC assay with meropenem, K. pneumoniae OXA-48; format: cell-based; conditions: Fixed Mero (meropenem) 4 μg/mL; K. p. 11978 OXA-48
Excerpt: as §4, §5

T4 sequence (P05364 21-381): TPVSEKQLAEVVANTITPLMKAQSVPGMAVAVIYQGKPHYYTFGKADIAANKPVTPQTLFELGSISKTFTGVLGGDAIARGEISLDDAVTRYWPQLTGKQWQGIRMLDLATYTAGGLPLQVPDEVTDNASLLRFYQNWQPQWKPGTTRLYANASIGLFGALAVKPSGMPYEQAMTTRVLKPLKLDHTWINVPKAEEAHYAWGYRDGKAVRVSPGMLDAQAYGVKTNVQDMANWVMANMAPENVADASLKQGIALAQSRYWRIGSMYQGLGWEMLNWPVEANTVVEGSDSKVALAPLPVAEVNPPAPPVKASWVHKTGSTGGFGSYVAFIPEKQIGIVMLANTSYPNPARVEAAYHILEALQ
T1 sequence (P0A3M1 22-286): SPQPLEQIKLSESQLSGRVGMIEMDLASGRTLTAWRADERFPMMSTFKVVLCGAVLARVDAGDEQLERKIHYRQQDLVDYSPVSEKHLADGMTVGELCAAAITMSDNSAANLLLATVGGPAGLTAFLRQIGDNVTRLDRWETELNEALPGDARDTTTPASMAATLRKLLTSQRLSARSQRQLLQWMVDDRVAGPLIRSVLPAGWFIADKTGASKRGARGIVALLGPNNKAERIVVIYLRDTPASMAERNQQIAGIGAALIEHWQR
T2 sequence (Q9F663 25-293, looked up): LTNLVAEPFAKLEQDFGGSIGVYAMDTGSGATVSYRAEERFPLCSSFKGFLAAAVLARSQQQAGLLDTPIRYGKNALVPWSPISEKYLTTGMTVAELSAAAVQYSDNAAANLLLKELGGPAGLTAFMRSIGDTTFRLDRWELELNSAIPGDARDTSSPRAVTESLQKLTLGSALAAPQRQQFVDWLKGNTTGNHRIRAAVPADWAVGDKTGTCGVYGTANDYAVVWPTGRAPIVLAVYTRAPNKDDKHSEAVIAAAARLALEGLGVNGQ

## NCC#Cc1c(CN)nnn1CC(=O)N[C@H]1Cc2cccc(C(=O)O)c2OB1O [Example 109, (R)-3-(2-(4-(aminomethyl)-5-(3-aminoprop-1-yn-1-yl)-1H-1,2,3-triazol-1-yl)acetamido)-2-hydroxy-3,4-dihydro-2H-benzo[e][1,2]oxaborinine-8-carboxylic acid]
[1]
  IC50: 0.1 to 1 µM
[2]
  IC50: 0.1 to 1 µM
[3]
  IC50: < 0.1 µM
[4]
  IC50: 0.1 to 1 µM
[5]
  IC50: < 0.1 µM
[6]
  MIC (μg/mL) of Exemplary Compounds in presence of fixed β-lactams: E. coli ESBL4 CTX-M-15: C (C represents an MIC of <1 μg/mL)
[7]
  MIC (μg/mL) of Exemplary Compounds in presence of fixed β-lactams: K. p. 156319 KPC-3: B (B represents an MIC between 1 and 16 μg/mL inclusive)
[8]
  MIC (μg/mL) of Exemplary Compounds in presence of fixed β-lactams: P. aerug. 2775 VIM-2: C (C represents an MIC of <1 μg/mL)
[9]
  MIC (μg/mL) of Exemplary Compounds in presence of fixed β-lactams: K. p. A-1797 KPC-2 VIM-4: C (C represents an MIC of <1 μg/mL)
[10]
  MIC (μg/mL) of Exemplary Compounds in presence of fixed β-lactams: K. p. 11978 OXA-48: B (B represents an MIC between 1 and 16 μg/mL inclusive)

## NCCCc1c(CN)nnn1CC(=O)N[C@H]1Cc2cccc(C(=O)O)c2OB1O [Example 110, (R)-3-(2-(4-(aminomethyl)-5-(3-aminopropyl)-1H-1,2,3-triazol-1-yl)acetamido)-2-hydroxy-3,4-dihydro-2H-benzo[e][1,2]oxaborinine-8-carboxylic acid]
[1]
  IC50: 1 to 10 µM
[2]
  IC50: 0.1 to 1 µM
[3]
  IC50: < 0.1 µM
[4]
  IC50: 0.1 to 1 µM
[5]
  IC50: 0.1 to 1 µM
[6]
  MIC (μg/mL) of Exemplary Compounds in presence of fixed β-lactams: E. coli ESBL4 CTX-M-15: C (C represents an MIC of <1 μg/mL)
[7]
  MIC (μg/mL) of Exemplary Compounds in presence of fixed β-lactams: K. p. 156319 KPC-3: C (C represents an MIC of <1 μg/mL)
[8]
  MIC (μg/mL) of Exemplary Compounds in presence of fixed β-lactams: P. aerug. 2775 VIM-2: C (C represents an MIC of <1 μg/mL)
[9]
  MIC (μg/mL) of Exemplary Compounds in presence of fixed β-lactams: K. p. A-1797 KPC-2 VIM-4: C (C represents an MIC of <1 μg/mL)
[10]
  MIC (μg/mL) of Exemplary Compounds in presence of fixed β-lactams: K. p. 11978 OXA-48: B (B represents an MIC between 1 and 16 μg/mL inclusive)

## O=C(Cn1cc(CF)nn1)N[C@H]1Cc2cccc(C(=O)O)c2OB1O [Example 111, (R)-3-(2-(4-(fluoromethyl)-1H-1,2,3-triazol-1-yl)acetamido)-2-hydroxy-3,4-dihydro-2H-benzo[e][1,2]oxaborinine-8-carboxylic acid]
[1]
  IC50: < 0.1 µM
[2]
  IC50: < 0.1 µM
[3]
  IC50: 1 to 10 µM
[4]
  IC50: < 0.1 µM
[5]
  IC50: 0.1 to 1 µM
[6]
  MIC (μg/mL) of Exemplary Compounds in presence of fixed β-lactams: E. coli ESBL4 CTX-M-15: C (C represents an MIC of <1 μg/mL)
[7]
  MIC (μg/mL) of Exemplary Compounds in presence of fixed β-lactams: K. p. 156319 KPC-3: B (B represents an MIC between 1 and 16 μg/mL inclusive)
[8]
  MIC (μg/mL) of Exemplary Compounds in presence of fixed β-lactams: P. aerug. 2775 VIM-2: B (B represents an MIC between 1 and 16 μg/mL inclusive)
[9]
  MIC (μg/mL) of Exemplary Compounds in presence of fixed β-lactams: K. p. A-1797 KPC-2 VIM-4: B (B represents an MIC between 1 and 16 μg/mL inclusive)
[10]
  MIC (μg/mL) of Exemplary Compounds in presence of fixed β-lactams: K. p. 11978 OXA-48: B (B represents an MIC between 1 and 16 μg/mL inclusive)

## O=C(Cn1cc(CNCCCC(F)(F)F)nn1)N[C@H]1Cc2cccc(C(=O)O)c2OB1O [Example 112, (R)-2-hydroxy-3-(2-(4-(((4,4,4-trifluorobutyl)amino)methyl)-1H-1,2,3-triazol-1-yl)acetamido)-3,4-dihydro-2H-benzo[e][1,2]oxaborinine-8-carboxylic acid]
[1]
  IC50: 0.1 to 1 µM
[2]
  IC50: 0.1 to 1 µM
[3]
  IC50: 0.1 to 1 µM
[4]
  IC50: < 0.1 µM
[5]
  IC50: 0.1 to 1 µM
[6]
  MIC (μg/mL) of Exemplary Compounds in presence of fixed β-lactams: E. coli ESBL4 CTX-M-15: C (C represents an MIC of <1 μg/mL)
[7]
  MIC (μg/mL) of Exemplary Compounds in presence of fixed β-lactams: K. p. 156319 KPC-3: B (B represents an MIC between 1 and 16 μg/mL inclusive)
[8]
  MIC (μg/mL) of Exemplary Compounds in presence of fixed β-lactams: P. aerug. 2775 VIM-2: C (C represents an MIC of <1 μg/mL)
[9]
  MIC (μg/mL) of Exemplary Compounds in presence of fixed β-lactams: K. p. A-1797 KPC-2 VIM-4: B (B represents an MIC between 1 and 16 μg/mL inclusive)
[10]
  MIC (μg/mL) of Exemplary Compounds in presence of fixed β-lactams: K. p. 11978 OXA-48: A (A represents an MIC>16 μg/mL)

## O=C(Cn1ccc(B(O)O)n1)N[C@H]1Cc2cccc(C(=O)O)c2OB1O [Example 116, (R)-3-(2-(3-borono-1H-pyrazol-1-yl)acetamido)-2-hydroxy-3,4-dihydro-2H-benzo[e][1,2]oxaborinine-8-carboxylic acid]
[1]
  IC50: < 0.1 µM
[2]
  IC50: < 0.1 µM
[3]
  IC50: 1 to 10 µM
[4]
  IC50: < 0.1 µM
[5]
  IC50: 0.1 to 1 µM
[6]
  MIC (μg/mL) of Exemplary Compounds in presence of fixed β-lactams: E. coli ESBL4 CTX-M-15: C (C represents an MIC of <1 μg/mL)
[7]
  MIC (μg/mL) of Exemplary Compounds in presence of fixed β-lactams: K. p. 156319 KPC-3: B (B represents an MIC between 1 and 16 μg/mL inclusive)
[8]
  MIC (μg/mL) of Exemplary Compounds in presence of fixed β-lactams: P. aerug. 2775 VIM-2: C (C represents an MIC of <1 μg/mL)
[9]
  MIC (μg/mL) of Exemplary Compounds in presence of fixed β-lactams: K. p. A-1797 KPC-2 VIM-4: B (B represents an MIC between 1 and 16 μg/mL inclusive)
[10]
  MIC (μg/mL) of Exemplary Compounds in presence of fixed β-lactams: K. p. 11978 OXA-48: B (B represents an MIC between 1 and 16 μg/mL inclusive)
